Patent US20260166068A1, “COMPOSITION FOR PROMOTING DEVELOPMENT OF BRAIN FUNCTIONS IN CHILDREN” (Meiji Co., Ltd., priority 2022, published 2026)
“And” between values parts separate entries of the source, which are not always exact repeats. Identical values can stand only once.

Key:
[1] = system: brain function development of infants; experiment: Spearman correlation of NAD-related substance concentration in 1-month breast milk with ASQ-3 developmental scores at 24 months; format: in vivo, human; conditions: for Correlation with concentration, r (Spearman): ASQ-3 at 24 months, 1-month breast milk; for Correlation of concentration in breast milk with developmental scores (in words): p<0.05
Protocol: (§1) The method was specifically as follows.
Concentrations of NAD-related substances in 1-month breast milk ingested by 150 infants of 1 to 6 months old, who were fully breastfed, were determined by LC-MS/MS.
Development of the infants was assessed at the age of 24 months using ASQ (registered trademark)-3 (Japanese version of ASQ (registered trademark)-3 infant developmental screening questionnaires, Igaku Shoin, 2021). The relationship between the amount of each NAD-related substance ingested by the infants and their development was evaluated by using Spearman's rank-order correlation coefficient.

old rats = conditions: each alone or in combination; cited from earlier work
[2] = system: brain function development of infants; experiment: Between-group comparison (Mann-Whitney U) of ASQ-3 developmental scores, high NMN vs low NMN breast milk; format: in vivo, human
Protocol: as §1
By using the data on the contents of NMN in breast milk and the developmental scores of the infants shown in Method 1, the subject infants were divided into two groups according to the concentration of NMN in breast milk, and the groups were compared according to Mann-Whitney's U-test. In this study, the boundary concentration of the two groups was set to be 1.922 μg/mL (mean NMN concentration in 1-month breast milk−1×standard deviation) or 3.089 μg/mL (mean NMN concentration in 1-month breast milk). That is, the group comparison was performed between two groups of NMN concentrations in the consumed breast milk of […] (high NMN group) and <1.922 μg/mL (low NMN group), or two groups of the same of 3.089 μg/mL (high NMN group) and <3.089 μg/mL (low NMN group).

aged mice = conditions: cited from earlier work
mouse = conditions: aging; cited from earlier work
[3] = system: mouse model of drug-induced depression; conditions: cited from earlier work
piglets = conditions: cited from earlier work
mice = conditions: cited from earlier work

Structure (SMILES)	Correlation with concentration, r (Spearman) ([1]; Communication, 150 infants)	Correlation with concentration, r (Spearman) ([1]; Gross motor)	Correlation with concentration, r (Spearman) ([1]; Problem solving)	Correlation with concentration, r (Spearman) ([1]; Social-individual)	Correlation with concentration, r (Spearman) ([1]; Fine motor)	Learning and memory abilities (old rats)	also measured
O=C(O)c1cccnc1 [NA, nicotinic acid]	0.025	0.095	0.147	0.154	–	–	Correlation of concentration in breast milk with developmental scores (in words) ([1]; gross motor): positive correlation
NC(=O)c1ccc[n+]([C@@H]2O[C@H](COP(=O)([O-])OP(=O)(O)OC[C@H]3O[C@@H](n4cnc5c(N)ncnc54)[C@H](O)[C@@H]3O)[C@@H](O)[C@H]2O)c1 [NAD, nicotinamide adenine dinucleotide]	–	0.077	0.056	0.048	0.025	–	–
NC(=O)c1ccc[n+]([C@@H]2O[C@H](COP(=O)([O-])O)[C@@H](O)[C@H]2O)c1 [NMN, nicotinamide mononucleotide]	0.199	0.186	0.288	0.269 and 0.259	0.208	improves their learning and memory abilities	Development of the infants, high NMN group vs low NMN group ([2]; fine motor, boundary value 3.089 μg/mL, FIG. 2): significantly accelerated; NMN level in the composition at which infants' brain functions are significantly enhanced ([2]; in vivo): ≥ 1.922 µg/mL; Development of the infants, high NMN group vs low NMN group ([2]; personal-social, boundary value 1.922 μg/mL, FIG. 1): significantly accelerated; Development of the infants, high NMN group vs low NMN group ([2]; personal-social, boundary value 3.089 μg/mL, FIG. 2): significantly accelerated; Development of the infants, high NMN group vs low NMN group ([2]; problem solving, boundary value 3.089 μg/mL, FIG. 2): significantly accelerated; Correlation of concentration in breast milk with developmental scores (in words) ([1]; all five developmental areas at 24 months): significant positive correlation; Effectiveness in promoting brain development in infants among the NAD-related substances ([1]; in vivo): most effective; Correlation between amount in breast milk ingested from 1 to 6 months of age and development by ASQ-3 24-month (in words) ([1]; overall): high correlation; Neurovascular coupling (aged mice): may promote neurovascular coupling; Hypersensitive behaviors to fear and anxiety (mouse): may alleviate hypersensitive behaviors to fear and anxiety; Drug-induced depression-like symptoms [3]: improves drug-induced depression-like symptoms
NC(=O)c1ccc[n+]([C@@H]2O[C@H](CO)[C@@H](O)[C@H]2O)c1 [NR, nicotinamide riboside]	0.017	0.082	–	0.117	0.085	–	Correlation of concentration in breast milk with developmental scores (in words) ([1]; problem solving): positive correlation; Short-chain fatty acids in feces (piglets): increased levels; BDNF level in breast milk (mice; NR supplementation of mothers): twice as high; Fat and brain size of offspring at weaning (mice; mice raised by supplemented mothers): lower fat and larger brains; Milk secretion and production of BDNF (mice; mouse, in vivo): stimulates milk secretion
COc1ccc2[nH]cc(CCNC(C)=O)c2c1 [melatonin]	–	–	–	–	–	improves their learning and memory abilities	–
